Converted amounts (≈) assume the structure as drawn. Read-outs that look alike come from different tables or passages of the source.
What was measured:
[1] = system: Klebsiella pneumoniae strain MS6771; assay: MIC by broth microdilution (CLSI); type: cell-based; conditions: for MIC: Klebsiella pneumoniae, read-out: MIC
[2] = system: Methicillin-resistant Staphylococcus aureus (MRSA) strain USA300; assay: MIC by broth microdilution (CLSI); conditions: Staphylococcus aureus
Experimental: GAS HKU16, MRSA USA300, VRE RBWH1, Klebsiella pneumoniae strain MS6771, E. coli strain MS8345 and Streptococcus pneumoniae strain 23F were grown in Todd-Hewitt broth (THB) or agar with 1% yeast extract (THY) [Todd, E. W. & Hewitt, L. F. A new culture medium for the production of antigenic streptococcal haemolysin. […] Bacteria were routinely grown at 37° C. in ambient air.
MICs were determined by broth microdilution in accordance to CLSI guidelines (“Methods for Dilution Antimicrobial Susceptibility Tests for Bacteria That Grow Aerobically”, Clinical and Laboratory Standards Institute) [Clinical and Laboratory Standards Institute. […] For MRSA, VRE, Klebsiella pneumoniae and E. coli the assays were performed in MHB, and for GAS and Streptococcus pneumoniae MHB+2.5% lysed horse blood (LHB) was used. The bacterial inoculum was prepared by direct colony suspension aiming for 2-8×10^5 colony forming units (CFU)/mL bacteria per well. Antibiotics/compounds were serially diluted two-fold across the 96-well plate, the last column contained no antibiotics/compounds. The inoculum was added to the plate containing antibiotic/compound and incubated for 16-24 h at 35+/−2° C. […] MIC assays were carried out in biological triplicates.
Using Clinical and Laboratory Standards Institute guidelines for antimicrobial sensitivity testing [Clinical and Laboratory Standards Institute.

[3] = system: Vancomycin-resistant Enterococci (VRE) clinical isolate RBWH1; assay: MIC by broth microdilution (CLSI); type: cell-based, Enterococcus; conditions: Enterococcus, VRE, read-out: MIC
Experimental: (§1) J. Path. Bact. […] Proc. Soc.
(§2) MIC assays were carried out in biological triplicates.
(§3) M100 Performance Standards for Antimicrobial Susceptibility Testing, 27th Edition.

[4] = system: GAS strain HKU16 (Streptococcus pyogenes strain HKU16); assay: microbe, parasite or virus in culture; type: cell-based; conditions: Streptococcus pyogenes; GAS; RA-HQ-12: 0 μM, Zn: 0 μM; read-out: MIC
Experimental: as §1, §2, §3

[5] = system: Streptococcus pneumoniae 23F; assay: MIC by broth microdilution (CLSI); type: cell-based; conditions: for MIC: Streptococcus pneumoniae, 23F, read-out: MIC
[6] = MS6771, Klebsiella pneumoniae, CQ: 0 μM, Zinc: 0 μM
[7] = MS6771, Klebsiella pneumoniae, CQ: 64 μM, Zinc: 256 μM
[8] = MS6771, Klebsiella pneumoniae, CQ: 64 μM
[9] = MS6771, Klebsiella pneumoniae, PBT2: 0 μM, Zinc: 0 μM
[10] = MS6771, Klebsiella pneumoniae, PBT2: 64 μM, Zinc: 256 μM
[11] = MS6771, Klebsiella pneumoniae, PBT2: 64 μM
[12] = MS6771, Klebsiella pneumoniae, Zinc: 256 μM (CQ panel)
[13] = MS6771, Klebsiella pneumoniae, Zinc: 256 μM (PBT2 panel)

MIC [1, 6] [µg/mL]	MIC [1, 7] [µg/mL]	MIC [1, 8] [µg/mL]	MIC [1, 9] [µg/mL]	MIC [1, 10] [µg/mL]	MIC [1, 11] [µg/mL]	MIC [1, 12] [µg/mL]	MIC [1, 13] [µg/mL]	Structure (SMILES)	further results
> 128	> 128	> 128	> 128	> 128	> 128	> 128	> 128	NCC[C@H](O)C(=O)N[C@@H]1C[C@H](N)[C@@H](O[C@H]2O[C@H](CN)[C@@H](O)[C@H](O)[C@H]2O)[C@H](O)[C@H]1O[C@H]1O[C@H](CO)[C@@H](O)[C@H](N)[C@H]1O [Amikacin, amikacin]	antibiotic sensitivity of resistant strain ([1]; Klebsiella pneumoniae MS6771, addition of sub-inhibitory PBT2+zinc(II) ions): not
–	–	–	–	–	–	–	–	CC[C@H]1OC(=O)[C@H](C)[C@@H](O[C@H]2C[C@@](C)(OC)[C@@H](O)[C@H](C)O2)[C@H](C)[C@@H](O[C@@H]2O[C@H](C)C[C@H](N(C)C)[C@H]2O)[C@](C)(O)C[C@@H](C)CN(C)[C@H](C)[C@@H](O)[C@]1(C)O [Azithromycin, azithromycin]	MIC ([1]; MS6771, K. pneumoniae, RA-HQ-12: 0 μM, Zn: 0 μM): 32 µg/mL (≈ 42.7 µM); MIC ([1]; MS6771, K. pneumoniae, RA-HQ-12: 16 μM, Zn: 64 μM): 32 µg/mL (≈ 42.7 µM); MIC ([1]; MS6771, K. pneumoniae, RA-HQ-12: 16 μM): 32 µg/mL (≈ 42.7 µM); MIC ([1]; MS6771, K. pneumoniae, Zn: 64 μM): 32 µg/mL (≈ 42.7 µM); MIC [2]: 128 µg/mL (≈ 171 µM); MIC ([2]; MRSA|USA300, MRSA, RA-HQ-12: 3.5 μM, Zn: […], oxacillin with 2% NaCl): 32 µg/mL (≈ 42.7 µM); MIC ([2]; MRSA|USA300, MRSA, RA-HQ-12: 3.5 μM, oxacillin with 2% NaCl): 64 µg/mL (≈ 85.4 µM); MIC ([3]; RA-HQ-12: 3.5 μM, Zn: […]): > 128 µg/mL; MIC ([3]; RA-HQ-12: 3.5 μM): > 128 µg/mL; MIC ([3]; Zn: […] (RA-HQ-12 panel)): > 128 µg/mL; MIC ([3]; RA-HQ-12: 0 μM, Zn: 0 μM): > 128 µg/mL; MIC [4]: > 128 µg/mL
128 (≈ 299 µM)	64 (≈ 150 µM)	64 (≈ 150 µM)	128 (≈ 299 µM)	64 (≈ 150 µM)	64 (≈ 150 µM)	128 (≈ 299 µM)	128 (≈ 299 µM)	CO[C@@]1(NC(=O)Cc2cccs2)C(=O)N2C(C(=O)O)=C(COC(N)=O)CS[C@@H]21 [Cefoxitin, cefoxitin]	–
> 128	> 128	> 128	> 128	> 128	> 128	> 128	> 128	CCO/N=C(\C(=O)N[C@@H]1C(=O)N2C(C(=O)[O-])=C(Sc3nc(-c4cc[n+](C)cc4)cs3)CS[C@H]12)c1nsc(N)n1 [Ceftaroline]	–
32 (≈ 58.5 µM)	16 (≈ 29.3 µM)	16 (≈ 29.3 µM)	32 (≈ 58.5 µM)	32 (≈ 58.5 µM)	32 (≈ 58.5 µM)	32 (≈ 58.5 µM)	32 (≈ 58.5 µM)	CC(C)(O/N=C(\C(=O)N[C@@H]1C(=O)N2C(C(=O)[O-])=C(C[n+]3ccccc3)CS[C@H]12)c1csc(N)n1)C(=O)O [Ceftazidime, ceftazidime]	–
8 to 16 (≈ 18 to 36 µM)	8 (≈ 18 µM)	8 (≈ 18 µM)	8 to 16 (≈ 18 to 36 µM)	4 (≈ 9 µM)	4 to 8 (≈ 9 to 18 µM)	8 to 16 (≈ 18 to 36 µM)	8 to 16 (≈ 18 to 36 µM)	C[C@H]1c2cccc(O)c2C(=O)C2=C(O)[C@]3(O)C(=O)C(C(N)=O)=C(O)[C@@H](N(C)C)[C@@H]3[C@@H](O)[C@@H]21 [Doxycycline, doxycycline]	–

Structure (SMILES)	MIC [1, 6] [µg/mL]	MIC [1, 7] [µg/mL]	MIC [1, 8] [µg/mL]	MIC [1, 9] [µg/mL]	MIC [1, 10] [µg/mL]	MIC [1, 11] [µg/mL]	MIC [1, 12] [µg/mL]	MIC [1, 13] [µg/mL]	further results
O=C(N[C@H](CO)[C@H](O)c1ccc([N+](=O)[O-])cc1)C(Cl)Cl [Chloramphenicol, chloramphenicol]	128 (≈ 396 µM)	64 (≈ 198 µM)	64 (≈ 198 µM)	128 (≈ 396 µM)	128 (≈ 396 µM)	128 (≈ 396 µM)	128 (≈ 396 µM)	128 (≈ 396 µM)	MIC ([5]; PBT2: 0 μM, Zinc: 0 μM): 16 µg/mL (≈ 49.5 µM); MIC ([5]; PBT2: 8 μM, Zinc: 32 μM): 2 µg/mL (≈ 6.19 µM); MIC ([5]; PBT2: 8 μM): 16 µg/mL (≈ 49.5 µM); MIC ([5]; Zinc: 32 μM): 16 µg/mL (≈ 49.5 µM); antibiotic sensitivity of resistant strain ([5]; addition of sub-inhibitory PBT2+zinc(II) ions): became sensitive

Source: US20200261440A1, “ZINC IONOPHORES AND USES THEREOF” (THE UNIVERSITY OF QUEENSLAND, priority 2017, published 2020)
